Test results taken from publication PMC6197744, “Triazolo[4,5-d]pyrimidines as Validated General Control Nonderepressible 2 (GCN2) Protein Kinase Inhibitors Reduce Growth of Leukemia Cells” (Computational and Structural Biotechnology Journal, 2018).

Columns and labels:
Assay in all cases: Broad kinase panel screen (split-luciferase)
Format in all cases: binding
[1] = biological target: T1, CDK5 (Homo sapiens, UniProt Q00535); conditions: CDK5, 0.5 uM
T1 construct: purchased Luceome Biotechnologies
Protocol: (§1) Compound 2 was screened against a standard panel of 50 protein kinases by Luceome Biotechnologies (Tucson, AZ). In brief, Compound 2 was dissolved and diluted in DMSO to a concentration of 12.5 μM from a 10 mM stock solution. As a control, compound 2 was evaluated for false positive against split-luciferase. For kinase assays, each C-terminal half of firefly luciferase linked kinase (Cfluc-Kinase) was translated along with the coiled coil Fos attached to the N-terminal fragment (Nfluc) (Fos-Nfluc) using rabbit reticulocyte lysate at 30 °C for 90 min. 24 µL aliquot of this lysate containing 1 µL of either DMSO or Compound 2 (at a final concentration 0.5 μM) was incubated for 30 minutes at room temperature followed by 1 hour incubation in the presence of a kinase specific probe. Finally, 80 µL of luciferin assay reagent was added and luminescence was immediately measured on a luminometer. Compound 2 was screened in duplicate against each kinase.
(§2) The % Inhibition and % Activity Remaining was calculated using the following equations: […]

[2] = biological target: T2, CAMK1D (Homo sapiens, UniProt Q8IU85)
T2 construct: purchased Luceome Biotechnologies
Protocol: as §1, §2

[3] = biological target: T3, PDK1/PDPK1 (Homo sapiens, UniProt O15530); conditions: PDK1/PDPK1, 0.5 uM
T3 construct: purchased Luceome Biotechnologies
Protocol: as §1, §2

[4] = biological target: T4, RSK2/RPS6KA3 (Homo sapiens, UniProt P51812); conditions: RSK2/RPS6KA3, 0.5 uM
T4 construct: purchased Luceome Biotechnologies
Protocol: as §1, §2

[5] = biological target: T5, CAMK2D (Homo sapiens, UniProt Q13557)
T5 construct: purchased Luceome Biotechnologies
Protocol: as §1, §2

[6] = biological target: T6, HCK (Homo sapiens, UniProt P08631)
T6 construct: purchased Luceome Biotechnologies
Protocol: as §1, §2

[7] = biological target: T7, AKT2 (Homo sapiens, UniProt P31751); conditions: AKT2, 0.5 uM
T7 construct: purchased Luceome Biotechnologies
Protocol: as §1, §2

[8] = biological target: T8, ITK (Homo sapiens, UniProt Q08881)
T8 construct: purchased Luceome Biotechnologies
Protocol: as §1, §2

[9] = biological target: T9, EPHA5 (Homo sapiens, UniProt P54756); conditions: EPHA5, 0.5 uM
T9 construct: purchased Luceome Biotechnologies
Protocol: as §1, §2

[10] = biological target: T10, DDR1 (Homo sapiens, UniProt Q08345); conditions: DDR1, 0.5 uM
T10 construct: purchased Luceome Biotechnologies
Protocol: as §1, §2

[11] = biological target: T11, MAPK14/p38a (Homo sapiens, UniProt Q16539)
T11 construct: purchased Luceome Biotechnologies
Protocol: as §1, §2

[12] = biological target: T12, IGF1R (Homo sapiens, UniProt P08069)
T12 construct: purchased Luceome Biotechnologies
Protocol: as §1, §2

[13] = biological target: T13, AMPK-a1/AMPK (Homo sapiens, UniProt Q13131)
T13 construct: purchased Luceome Biotechnologies
T13 sequence (Q13131 whole entry): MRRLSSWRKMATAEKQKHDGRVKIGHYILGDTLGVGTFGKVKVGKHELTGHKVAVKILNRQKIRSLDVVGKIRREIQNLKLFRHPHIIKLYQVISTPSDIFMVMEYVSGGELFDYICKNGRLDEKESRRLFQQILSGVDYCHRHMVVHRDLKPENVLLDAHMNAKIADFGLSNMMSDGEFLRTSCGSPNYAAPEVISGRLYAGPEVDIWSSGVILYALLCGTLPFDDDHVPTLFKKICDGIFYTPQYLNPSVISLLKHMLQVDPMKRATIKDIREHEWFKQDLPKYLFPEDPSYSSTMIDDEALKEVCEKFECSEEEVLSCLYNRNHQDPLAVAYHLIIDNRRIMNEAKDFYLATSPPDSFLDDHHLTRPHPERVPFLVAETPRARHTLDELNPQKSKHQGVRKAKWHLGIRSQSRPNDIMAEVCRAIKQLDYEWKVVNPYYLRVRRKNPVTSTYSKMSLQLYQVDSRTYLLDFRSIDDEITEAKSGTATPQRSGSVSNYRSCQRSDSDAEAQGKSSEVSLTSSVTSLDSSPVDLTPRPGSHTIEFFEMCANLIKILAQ
Protocol: as §1, §2

[14] = biological target: T14, SIK2 (Homo sapiens, UniProt Q9H0K1); conditions: SIK2, 0.5 uM
T14 construct: purchased Luceome Biotechnologies
T14 sequence (Q9H0K1 whole entry): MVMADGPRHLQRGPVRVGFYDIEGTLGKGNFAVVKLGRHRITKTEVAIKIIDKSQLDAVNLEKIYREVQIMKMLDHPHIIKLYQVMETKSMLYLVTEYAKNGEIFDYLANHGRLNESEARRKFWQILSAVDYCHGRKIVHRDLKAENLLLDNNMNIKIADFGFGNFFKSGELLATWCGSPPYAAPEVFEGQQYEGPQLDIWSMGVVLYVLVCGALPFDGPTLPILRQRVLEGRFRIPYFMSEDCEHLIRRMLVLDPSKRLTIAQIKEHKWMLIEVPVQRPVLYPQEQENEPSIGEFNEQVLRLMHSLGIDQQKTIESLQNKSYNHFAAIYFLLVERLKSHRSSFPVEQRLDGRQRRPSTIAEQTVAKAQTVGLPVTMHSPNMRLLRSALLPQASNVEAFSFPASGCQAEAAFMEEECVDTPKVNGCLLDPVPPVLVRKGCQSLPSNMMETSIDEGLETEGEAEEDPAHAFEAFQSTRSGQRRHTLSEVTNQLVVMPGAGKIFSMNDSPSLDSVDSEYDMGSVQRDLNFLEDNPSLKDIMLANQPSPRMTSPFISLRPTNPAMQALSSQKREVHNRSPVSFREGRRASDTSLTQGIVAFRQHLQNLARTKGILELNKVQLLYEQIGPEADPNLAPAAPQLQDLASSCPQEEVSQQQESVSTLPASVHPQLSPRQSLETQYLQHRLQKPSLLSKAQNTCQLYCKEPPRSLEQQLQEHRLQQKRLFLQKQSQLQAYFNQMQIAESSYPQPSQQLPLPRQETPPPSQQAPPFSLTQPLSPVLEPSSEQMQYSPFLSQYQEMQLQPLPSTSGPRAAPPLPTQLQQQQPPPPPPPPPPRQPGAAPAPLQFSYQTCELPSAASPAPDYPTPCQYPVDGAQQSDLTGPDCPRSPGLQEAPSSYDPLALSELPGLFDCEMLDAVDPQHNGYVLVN
Protocol: as §1, §2

[15] = biological target: T15, YSK1 (Homo sapiens, UniProt O00506); conditions: YSK1, 0.5 uM
T15 construct: purchased Luceome Biotechnologies
Protocol: as §1, §2

[16] = biological target: T16, AKT3 (Homo sapiens, UniProt Q9Y243); conditions: AKT3, 0.5 uM
T16 construct: purchased Luceome Biotechnologies
Protocol: as §1, §2

[17] = biological target: T17, YANK2 (Homo sapiens, UniProt Q9NY57); conditions: YANK2, 0.5 uM
T17 construct: purchased Luceome Biotechnologies
Protocol: as §1, §2

[18] = biological target: T18, MARK2 (Homo sapiens, UniProt Q7KZI7); conditions: MARK2, 0.5 uM
T18 construct: purchased Luceome Biotechnologies
Protocol: as §1, §2

[19] = biological target: T19, SLK (Homo sapiens, UniProt Q9H2G2)
T19 construct: purchased Luceome Biotechnologies
T19 sequence (Q9H2G2 whole entry): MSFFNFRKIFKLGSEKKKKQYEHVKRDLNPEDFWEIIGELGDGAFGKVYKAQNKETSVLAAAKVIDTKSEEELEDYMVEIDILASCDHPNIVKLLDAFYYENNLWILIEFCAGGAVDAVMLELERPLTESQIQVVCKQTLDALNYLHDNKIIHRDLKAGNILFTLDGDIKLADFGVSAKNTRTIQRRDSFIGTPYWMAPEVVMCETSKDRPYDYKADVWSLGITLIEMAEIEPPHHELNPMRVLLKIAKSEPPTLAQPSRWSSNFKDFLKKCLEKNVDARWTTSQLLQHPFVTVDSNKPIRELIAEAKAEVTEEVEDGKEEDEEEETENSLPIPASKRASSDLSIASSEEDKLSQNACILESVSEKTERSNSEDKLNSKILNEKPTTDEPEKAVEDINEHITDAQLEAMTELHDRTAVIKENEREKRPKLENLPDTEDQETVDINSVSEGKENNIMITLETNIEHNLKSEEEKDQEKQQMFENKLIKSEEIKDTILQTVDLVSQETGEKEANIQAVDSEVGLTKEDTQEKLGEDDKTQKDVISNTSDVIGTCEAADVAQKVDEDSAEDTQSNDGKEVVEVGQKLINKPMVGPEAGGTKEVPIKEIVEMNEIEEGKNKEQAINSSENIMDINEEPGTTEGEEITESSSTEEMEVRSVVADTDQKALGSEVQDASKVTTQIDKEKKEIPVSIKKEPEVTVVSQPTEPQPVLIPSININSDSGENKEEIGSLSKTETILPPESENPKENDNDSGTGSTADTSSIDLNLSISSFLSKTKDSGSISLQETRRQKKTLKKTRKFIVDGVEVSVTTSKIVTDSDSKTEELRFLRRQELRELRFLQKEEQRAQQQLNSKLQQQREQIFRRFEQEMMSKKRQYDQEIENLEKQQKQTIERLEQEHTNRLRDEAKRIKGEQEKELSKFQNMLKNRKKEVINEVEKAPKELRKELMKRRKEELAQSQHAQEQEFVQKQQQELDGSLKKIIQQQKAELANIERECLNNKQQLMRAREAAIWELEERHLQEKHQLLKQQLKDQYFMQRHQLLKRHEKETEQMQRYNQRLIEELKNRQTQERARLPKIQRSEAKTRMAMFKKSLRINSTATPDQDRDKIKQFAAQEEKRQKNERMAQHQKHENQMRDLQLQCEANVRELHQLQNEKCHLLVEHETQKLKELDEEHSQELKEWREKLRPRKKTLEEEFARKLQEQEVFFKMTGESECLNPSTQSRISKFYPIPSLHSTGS
Protocol: as §1, §2

[20] = biological target: T20, AURKB (Homo sapiens, UniProt Q96GD4)
T20 construct: purchased Luceome Biotechnologies
Protocol: as §1, §2

[21] = biological target: T21, PKG1/PRKG1 (Homo sapiens, UniProt Q13976); conditions: PKG1/PRKG1, 0.5 uM
T21 construct: purchased Luceome Biotechnologies
T21 sequence (Q13976 whole entry): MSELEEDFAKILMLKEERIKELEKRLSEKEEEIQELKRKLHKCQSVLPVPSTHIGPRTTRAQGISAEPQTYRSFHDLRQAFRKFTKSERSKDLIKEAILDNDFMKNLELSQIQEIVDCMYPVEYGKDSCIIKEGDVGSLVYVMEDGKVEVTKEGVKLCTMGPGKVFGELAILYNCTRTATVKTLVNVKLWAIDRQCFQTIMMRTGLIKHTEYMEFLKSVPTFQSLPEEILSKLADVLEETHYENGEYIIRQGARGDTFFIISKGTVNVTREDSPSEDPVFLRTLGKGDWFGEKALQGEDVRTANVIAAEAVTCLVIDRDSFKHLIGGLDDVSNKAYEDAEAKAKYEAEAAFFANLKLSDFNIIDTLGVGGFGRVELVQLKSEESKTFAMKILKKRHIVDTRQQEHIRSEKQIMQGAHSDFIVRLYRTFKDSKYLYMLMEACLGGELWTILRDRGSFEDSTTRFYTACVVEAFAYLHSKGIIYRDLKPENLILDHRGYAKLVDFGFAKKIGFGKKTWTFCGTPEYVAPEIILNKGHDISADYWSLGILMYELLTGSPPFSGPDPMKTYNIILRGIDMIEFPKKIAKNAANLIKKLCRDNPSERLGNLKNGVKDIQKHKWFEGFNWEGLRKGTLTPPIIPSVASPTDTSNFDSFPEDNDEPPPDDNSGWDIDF
Protocol: as §1, §2

[22] = biological target: T22, CLK2 (Homo sapiens, UniProt P49760); conditions: CLK2, 0.5 uM
T22 construct: purchased Luceome Biotechnologies
Protocol: as §1, §2

[23] = biological target: T23, EPHB2 (Homo sapiens, UniProt P29323); conditions: EPHB2, 0.5 uM
T23 construct: purchased Luceome Biotechnologies
T23 sequence (P29323 19-1055): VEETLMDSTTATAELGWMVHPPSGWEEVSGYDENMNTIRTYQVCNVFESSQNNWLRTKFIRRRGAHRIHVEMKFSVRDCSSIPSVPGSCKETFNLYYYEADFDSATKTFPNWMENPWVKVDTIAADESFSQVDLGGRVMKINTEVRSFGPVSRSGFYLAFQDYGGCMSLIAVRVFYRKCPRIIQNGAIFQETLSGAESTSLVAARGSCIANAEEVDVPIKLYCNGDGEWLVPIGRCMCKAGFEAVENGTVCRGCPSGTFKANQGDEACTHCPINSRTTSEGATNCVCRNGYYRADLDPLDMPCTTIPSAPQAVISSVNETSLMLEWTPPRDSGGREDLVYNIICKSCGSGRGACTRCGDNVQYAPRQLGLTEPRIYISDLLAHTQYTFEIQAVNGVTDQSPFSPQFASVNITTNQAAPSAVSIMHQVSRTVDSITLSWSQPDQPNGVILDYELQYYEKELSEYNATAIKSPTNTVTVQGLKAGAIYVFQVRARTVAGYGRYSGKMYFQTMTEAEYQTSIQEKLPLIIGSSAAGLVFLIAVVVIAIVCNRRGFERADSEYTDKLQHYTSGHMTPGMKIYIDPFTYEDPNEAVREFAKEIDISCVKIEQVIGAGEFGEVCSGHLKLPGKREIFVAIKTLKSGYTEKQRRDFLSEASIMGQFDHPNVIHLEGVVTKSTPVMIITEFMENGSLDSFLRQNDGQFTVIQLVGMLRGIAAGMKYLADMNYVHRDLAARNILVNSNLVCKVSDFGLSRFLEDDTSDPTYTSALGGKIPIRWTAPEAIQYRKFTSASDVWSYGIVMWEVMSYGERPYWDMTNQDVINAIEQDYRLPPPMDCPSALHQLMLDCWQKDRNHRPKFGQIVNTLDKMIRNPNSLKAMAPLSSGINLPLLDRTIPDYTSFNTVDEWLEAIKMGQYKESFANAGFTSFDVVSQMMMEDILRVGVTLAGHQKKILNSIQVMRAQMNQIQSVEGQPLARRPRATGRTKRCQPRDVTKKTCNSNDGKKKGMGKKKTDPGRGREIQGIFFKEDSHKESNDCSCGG
Protocol: as §1, §2

[24] = biological target: T24, PTK2B/PYK2 (Homo sapiens, UniProt Q14289); conditions: PTK2B/PYK2, 0.5 uM
T24 construct: purchased Luceome Biotechnologies
Protocol: as §1, §2

[25] = biological target: T25, PLK4 (Homo sapiens, UniProt O00444); conditions: PLK4, 0.5 uM
T25 construct: purchased Luceome Biotechnologies
Protocol: as §1, §2

[26] = biological target: T26, PIM1 (Homo sapiens, UniProt P11309); conditions: PIM1, 0.5 uM
T26 construct: purchased Luceome Biotechnologies
Protocol: as §1, §2

[27] = biological target: T27, ACVR2A/ACVR2 (Homo sapiens, UniProt P27037); conditions: ACVR2A/ACVR2, 0.5 uM
T27 construct: purchased Luceome Biotechnologies
Protocol: as §1, §2

[28] = biological target: T28, MAP3K11/MLK3 (Homo sapiens, UniProt Q16584); conditions: MAP3K11/MLK3, 0.5 uM
T28 construct: purchased Luceome Biotechnologies
Protocol: as §1, §2

[29] = biological target: T29, AURKC (Homo sapiens, UniProt Q9UQB9)
T29 construct: purchased Luceome Biotechnologies
Protocol: as §1, §2

[30] = biological target: T30, DAPK3 (Homo sapiens, UniProt O43293); conditions: DAPK3, 0.5 uM
T30 construct: purchased Luceome Biotechnologies
Protocol: as §1, §2

[31] = biological target: T31, AKT1 (Homo sapiens, UniProt P31749); conditions: AKT1, 0.5 uM
T31 construct: purchased Luceome Biotechnologies
T31 sequence (P31749 whole entry): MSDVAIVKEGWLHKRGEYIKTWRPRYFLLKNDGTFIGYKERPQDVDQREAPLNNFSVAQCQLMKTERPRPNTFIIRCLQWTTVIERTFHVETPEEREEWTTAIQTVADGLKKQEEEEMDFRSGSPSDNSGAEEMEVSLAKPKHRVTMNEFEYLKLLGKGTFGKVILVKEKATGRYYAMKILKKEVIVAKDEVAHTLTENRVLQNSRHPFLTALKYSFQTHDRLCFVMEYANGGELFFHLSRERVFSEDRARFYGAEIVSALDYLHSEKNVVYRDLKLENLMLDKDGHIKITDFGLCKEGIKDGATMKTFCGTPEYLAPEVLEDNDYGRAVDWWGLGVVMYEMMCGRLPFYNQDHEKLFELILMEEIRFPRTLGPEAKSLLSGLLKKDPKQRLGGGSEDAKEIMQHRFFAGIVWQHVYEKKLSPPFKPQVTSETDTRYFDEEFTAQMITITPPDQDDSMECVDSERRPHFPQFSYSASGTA
Protocol: as §1, §2

[32] = biological target: T32, MSK2/RPS6KA4 (Homo sapiens, UniProt O75676); conditions: MSK2/RPS6KA4, 0.5 uM
T32 construct: purchased Luceome Biotechnologies
Protocol: as §1, §2

[33] = biological target: T33, AURKA (Homo sapiens, UniProt O14965)
T33 construct: purchased Luceome Biotechnologies
Protocol: as §1, §2

[34] = biological target: T34, TNK1 (Homo sapiens, UniProt Q13470); conditions: TNK1, 0.5 uM
T34 construct: purchased Luceome Biotechnologies
Protocol: as §1, §2

[35] = biological target: T35, VEGFR2/KDR/FLK1 (Homo sapiens, UniProt P35968); conditions: VEGFR2/KDR/FLK1, 0.5 uM
T35 construct: purchased Luceome Biotechnologies
Protocol: as §1, §2

What does the source list for `CCOc1ccc(-n2nnc3cnc(Nc4cnn(CC)c4)nc32)cc1` [Compound 2, 3-(4-Ethoxyphenyl)-N-(1-ethyl-1H-pyrazol-4-yl)-3H-[1,2,3]triazolo[4,5-d]pyrimidin-5-amine]?
remaining activity at 0.5 µM [1]: 94.4%; remaining activity at 0.5 µM [2]: 92.9%; remaining activity at 0.5 µM [3]: 96.2%; remaining activity at 0.5 µM [4]: 89.9%; remaining activity at 0.5 µM [5]: 89.9%; remaining activity at 0.5 µM [6]: 96%; remaining activity at 0.5 µM [7]: 96.8%; remaining activity at 0.5 µM [8]: 89.9%; remaining activity at 0.5 µM [9]: 97.8%; remaining activity at 0.5 µM [10]: 93.1%; remaining activity at 0.5 µM [11]: 100%; remaining activity at 0.5 µM [12]: 100%; remaining activity at 0.5 µM [13]: 100%; remaining activity at 0.5 µM [14]: 100%; remaining activity at 0.5 µM [15]: 93.6%; remaining activity at 0.5 µM [16]: 100%; remaining activity at 0.5 µM [17]: 100%; remaining activity at 0.5 µM [18]: 99.3%; remaining activity at 0.5 µM [19]: 98.7%; remaining activity at 0.5 µM [20]: 94.7%; remaining activity at 0.5 µM [21]: 96%; remaining activity at 0.5 µM [22]: 93%; remaining activity at 0.5 µM [23]: 97.7%; remaining activity at 0.5 µM [24]: 96%; remaining activity at 0.5 µM [25]: 100%; remaining activity at 0.5 µM [26]: 93.4%; remaining activity at 0.5 µM [27]: 100%; remaining activity at 0.5 µM [28]: 100%; remaining activity at 0.5 µM [29]: 98.7%; remaining activity at 0.5 µM [30]: 97.6%; remaining activity at 0.5 µM [31]: 98.4%; remaining activity at 0.5 µM [32]: 100%; remaining activity at 0.5 µM [33]: 97.1%; remaining activity at 0.5 µM [34]: 100%; remaining activity at 0.5 µM [35]: 77.1%
